Assays:
Format in all cases: functional, cell-based
EMT6 = test: Inhibitory activity of compound against murine mammary adenocarcinoma (EMT-6) cell proliferation; settings: Mus musculus
J774 = test: Inhibitory activity of compound against murine macrophage-like (J774.2) cell proliferation; settings: Mus musculus
OV-1063 = test: Inhibitory activity of compound against human ovarian carcinoma (OV-1063) Cell proliferation

CC(=O)O[C@H]1C(=O)[C@@]2(C)C([C@H](OC(=O)c3ccccc3)[C@]3(O)C[C@H](OC(=O)C[C@@H](NC(=O)c4ccccc4)c4ccccc4)C(C)=C1C3(C)C)[C@]1(OC(C)=O)COC1C[C@@H]2O (some centres undefined)
IC50 (EMT6): 0.3 µM | IC50 (J774): 0.4 µM | IC50 (OV-1063): 0.45 µM

CO[C@@H](C(=O)O[C@H]1C[C@@]2(O)[C@@H](OC(=O)c3ccccc3)C3[C@]4(OC(C)=O)COC4C[C@H](O)[C@@]3(C)C(=O)[C@H](OC(C)=O)C(=C1C)C2(C)C)[C@@H](NC(=O)c1ccccc1)c1ccccc1 (some centres undefined)
IC50 (EMT6): 0.27 µM | IC50 (J774): 0.47 µM | IC50 (OV-1063): 0.27 µM

CC(=O)O[C@H]1C(=O)[C@@]2(C)[C@H]([C@H](OC(=O)c3ccccc3)[C@]3(O)C[C@H](OC(=O)[C@H](O)[C@@H](NC(=O)c4ccccc4)c4ccccc4)C(C)=C1C3(C)C)[C@]1(OC(C)=O)CO[C@@H]1C[C@@H]2O [PACLITAXEL]
IC50 (EMT6): 0.009 µM | IC50 (J774): 0.015 µM | IC50 (OV-1063): 0.015 µM

From ChEMBL document CHEMBL1130353, “Conformational studies of paclitaxel analogs modified at the C-2' position in hydrophobic and hydrophilic solvent systems” (J Med Chem, 1997)
